Key:
[1] = biological target: T1, E. coli ribose binding protein variant A234C, fluorophore conjugate (Escherichia coli, UniProt P02925, A259C); experiment: Fluorimetric titration of fluorophore conjugates; conditions: ligand ribose
T1 construct: Gly-Ser-Gly-(His)n or Gly-Ser-(His)n, n=5, 6 or 10 (C); initiator methionine (N); made in house; host or cells: E. coli strain BL21-DE3
From the text: (§1) Molecular Cloning. […] Amplified products were cloned into one of the protein expression vectors pAED4 (Doering, “Functional and structural studies of a small f-actin binding domain” in Ph.D. thesis, Massachusetts Institute of Technology, 1992); pKK223-3 (Brosius & Holy, Proc. Natl. Acad. Sci. USA 81:6929-6933, 1984); or pET vectors (Studier et al., Meth. Enzymol. 185:60-89, 1990) (Novagen). N-terminal oligonucleotide primers were designed to clone only the processed periplasmic form, deleting the signal sequence. The C-terminal primer was designed to append the sequence Gly-Ser-Gly-(His)n or Gly-Ser-(His)n, where n=5, 6, or 10. Two tandem stop codons (TAATGA) follow the last His codon. […] Single amino acid substitutions were generated by overlapping PCR mutagenesis (Ho et al., Gene 77:51-59, 1989). All clones and mutations were confirmed by nucleotide sequencing. In the case of arabinose BP, the single cysteine in the wild type sequence was replaced by alanine to eliminate the possibility of reporter group conjugation to this thiol (Miller et al., J. Biol. Chem. 254:7521-7528, 1979). Additionally the sequence of Fe(III) BP was mutated by substitution of Glu57 with Asp to raise the Kd to a concentration range conveniently measured using Fe(III) citrate.
(§2) Fluorophore conjugation to cysteine-substituted bPBPs. Thiol-reactive fluorophores obtained from Molecular Probes (Eugene, Oreg.) were 5-iodoacetamidofluorescein (fluorescein); N-(1-pyrene) iodoacetamide (pyrene); N,N′-dimethyl-N-(iodoacetyl)-N′-(7-nitrobenz-2-oxa-1,3-diazol-4-yl)ethylenediamide (NBD); N-((2-(iodoacetoxy)ethyl)-N-methyl)amino-7-nitrobenz-2-oxa-1,3-diazole (NBDE); and 6-acryloyl-2-dimethylaminonaphthalene (acrylodan). The styryl and naphthyl dyes JPW4039, JPW4042, and JPW4045 (FIG. 3) were synthesized at the University of Connecticut. All fluorophore conjugation steps were typically carried out at room temperature. To protein at a concentration of 100 μM was added tris-(2-carboxyethyl)phosphine HCl to a five-fold molar excess to reduce intermolecular disulfide bonds. A thiol-reactive fluorophore (20 to 25 mM in acetonitrile or dimethyl sulfoxide) was added in small aliquots to a five-fold molar excess over protein. Conjugation proceeded in the dark at room temperature for 4 hours, or overnight at 4° C. Separation of protein from unreacted fluorophore was achieved by exhaustive dialysis or by size-exclusion chromatography. The efficiency of reporter group attachment was assessed by determination of unreacted thiol with Ellman's reagent (Ellman, Arch. Biochem. Biophys. 74:443-450, 1958) or by measuring the ratio of fluorophore to protein from absorbance spectra of the purified conjugate.
(§3) Fluorimetry. All measurements were conducted with an SLM Aminco-Bowman series 2 fluorimeter, with sample stirring at 25° C. Fluorescence emission spectra were acquired with excitation and emission slit widths of 4 and 8 nm, respectively. Photomultiplier tube potential was maintained between 400 and 800 volts. Protein concentrations were in the range of 50 to 1000 nM. Fluorophore-specific excitation was at the following approximate wavelengths: tryptophan, 290 nm; acrylodan, 390 nm; fluorescein, 485 nm; pyrene, 340 nm; NBD and NBDE, 490 nm; JPW4039, 485 nm; JPW4042, 470 nm; JPW4045, 470 nm.
(§4) Corrections were made for dilution of the protein and for background signal from buffer. Binding curves were fit to binding isotherms using equation 3 or 4, as appropriate.
(§5) Analyte affinity measurements. […] The emission wavelength monitored was that of maximum difference in intensity between the ligand-free and bound states. For each conjugate, fluorescence intensiometric observations were fit to a hyperbolic binding isotherm for a two-state model (Marvin et al., Proc. Natl. Acad. Sci. USA 94:4366-4371, 1997): […]

[2] = biological target: T2, E. coli ribose binding protein variant L265C, fluorophore conjugate (Escherichia coli, UniProt P02925, L290C); experiment: Fluorimetric titration of fluorophore conjugates
T2 construct: Gly-Ser-Gly-(His)n or Gly-Ser-(His)n, n=5, 6 or 10 (C); initiator methionine (N); made in house; host or cells: E. coli strain BL21-DE3
T2 sequence (P02925 26-296 L290C): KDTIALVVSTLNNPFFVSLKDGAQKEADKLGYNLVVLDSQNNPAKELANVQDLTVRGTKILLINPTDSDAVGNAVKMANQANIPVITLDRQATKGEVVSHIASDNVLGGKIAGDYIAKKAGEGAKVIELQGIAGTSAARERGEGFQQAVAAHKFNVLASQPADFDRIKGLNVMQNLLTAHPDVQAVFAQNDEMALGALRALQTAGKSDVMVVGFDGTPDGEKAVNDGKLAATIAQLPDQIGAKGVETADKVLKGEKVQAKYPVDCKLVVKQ
From the text: as §1, §2, §3, §4, §5

[3] = biological target: T3, E. coli ribose binding protein variant L236C, fluorophore conjugate (Escherichia coli, UniProt P02925, L261C); experiment: Fluorimetric titration of fluorophore conjugates; conditions: ligand ribose
T3 construct: Gly-Ser-Gly-(His)n or Gly-Ser-(His)n, n=5, 6 or 10 (C); initiator methionine (N); made in house; host or cells: E. coli strain BL21-DE3
T3 sequence (P02925 26-296 L261C): as the sequence (P02925 26-296 L290C) above, with L236C, C265L counted along it
From the text: as §1, §2, §3, §4, §5

[4] = biological target: T4, E. coli ribose binding protein variant E192C, fluorophore conjugate (Escherichia coli, UniProt P02925, E217C); experiment: Fluorimetric titration of fluorophore conjugates
T4 construct: Gly-Ser-Gly-(His)n or Gly-Ser-(His)n, n=5, 6 or 10 (C); initiator methionine (N); made in house; host or cells: E. coli strain BL21-DE3
T4 sequence (P02925 26-296 E217C): as the sequence (P02925 26-296 L290C) above, with E192C, C265L counted along it
From the text: as §1, §2, §3, §4, §5

[5] = biological target: T5, E. coli ribose binding protein (RBP), fluorophore-conjugated cysteine mutants (Escherichia coli, UniProt P02925); experiment: Ligand affinity of ribose BP fluorescent conjugates (Kd range); conditions: range over conjugates, n=14
T5 construct: single-Cys mutants (e.g. T135C, E192C) with fluorophores
T5 sequence (P02925 26-296, stated change not applied): as the sequence (P02925 26-296 L290C) above, with C265L counted along it
From the text: (§6) Molecular Cloning. […] Amplified products were cloned into one of the protein expression vectors pAED4 (Doering, “Functional and structural studies of a small f-actin binding domain” in Ph.D. thesis, Massachusetts Institute of Technology, 1992); pKK223-3 (Brosius & Holy, Proc. Natl. Acad. Sci. USA 81:6929-6933, 1984); or pET vectors (Studier et al., Meth. Enzymol. 185:60-89, 1990) (Novagen). N-terminal oligonucleotide primers were designed to clone only the processed periplasmic form, deleting the signal sequence. The C-terminal primer was designed to append the sequence Gly-Ser-Gly-(His)n or Gly-Ser-(His)n, where n=5, 6, or 10. Two tandem stop codons (TAATGA) follow the last His codon. […] Additionally the sequence of Fe(III) BP was mutated by substitution of Glu57 with Asp to raise the Kd to a concentration range conveniently measured using Fe(III) citrate.
(§7) Fluorophore conjugation to cysteine-substituted bPBPs. […] The efficiency of reporter group attachment was assessed by determination of unreacted thiol with Ellman's reagent (Ellman, Arch. Biochem. Biophys. 74:443-450, 1958) or by measuring the ratio of fluorophore to protein from absorbance spectra of the purified conjugate.
(§8) Fluorimetry. […] Fluorescence emission spectra were acquired with excitation and emission slit widths of 4 and 8 nm, respectively. […]

[6] = biological target: T6, E. coli sulfate binding protein (SBP), fluorophore-conjugated cysteine mutants (Escherichia coli, UniProt P0AG78); experiment: Ligand affinity of sulfate BP fluorescent conjugates (Kd range); conditions: range over conjugates, n=8
T6 construct: several single-Cys mutants with fluorophores
T6 sequence (P0AG78 20-329, change not shown): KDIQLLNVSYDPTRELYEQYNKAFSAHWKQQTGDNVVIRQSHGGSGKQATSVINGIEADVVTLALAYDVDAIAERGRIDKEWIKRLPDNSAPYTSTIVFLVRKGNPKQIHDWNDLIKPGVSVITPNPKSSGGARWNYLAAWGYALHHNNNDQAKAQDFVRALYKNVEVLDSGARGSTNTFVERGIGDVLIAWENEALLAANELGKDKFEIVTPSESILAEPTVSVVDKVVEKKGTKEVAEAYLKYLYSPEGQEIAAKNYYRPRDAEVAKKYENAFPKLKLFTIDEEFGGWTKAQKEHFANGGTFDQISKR
From the text: as §6
as §7, with “conjugate. […]” for “conjugate.”
as §8

[7] = biological target: T7, E. coli sulfate binding protein variant Q294C, fluorophore conjugate (Escherichia coli, UniProt P0AG78, Q313C); experiment: Fluorimetric titration of fluorophore conjugates; conditions: JPW4042 conjugate, ligand sulfate
T7 construct: Gly-Ser-Gly-(His)n or Gly-Ser-(His)n, n=5, 6 or 10 (C); initiator methionine (N); made in house; host or cells: E. coli strain BL21-DE3
T7 sequence (P0AG78 20-329 Q313C): as the sequence (P0AG78 20-329, change not shown) above, with Q294C counted along it
From the text: as §1, §2
(§9) Sulfate BP buffer (20 mM Tris-HCl, pH 8.0) was passed through the chloride form of Dowex 1X2-100 strongly basic anion-exchange resin. Sulfate BP solutions were treated by dialysis against treated buffer; Dowex resin held in a separate dialysis tube was also included.
as §3, §4
(§10) Analyte affinity measurements. […] The emission wavelength monitored was that of maximum difference in intensity between the ligand-free and bound states.

[8] = biological target: T8, E. coli sulfate binding protein variant L65C, fluorophore conjugate (Escherichia coli, UniProt P0AG78, L84C); experiment: Fluorimetric titration of fluorophore conjugates; conditions: Fluorescein conjugate, ligand sulfate
T8 construct: Gly-Ser-Gly-(His)n or Gly-Ser-(His)n, n=5, 6 or 10 (C); initiator methionine (N); made in house; host or cells: E. coli strain BL21-DE3
T8 sequence (P0AG78 20-329 L84C): as the sequence (P0AG78 20-329, change not shown) above, with L65C counted along it
From the text: as §1, §2, §9, §3, §4, §10

[9] = biological target: T9, E. coli sulfate binding protein variant R134C, fluorophore conjugate (Escherichia coli, UniProt P0AG78, R153C); experiment: Fluorimetric titration of fluorophore conjugates
T9 construct: Gly-Ser-Gly-(His)n or Gly-Ser-(His)n, n=5, 6 or 10 (C); initiator methionine (N); made in house; host or cells: E. coli strain BL21-DE3
T9 sequence (P0AG78 20-329 R153C): as the sequence (P0AG78 20-329, change not shown) above, with R134C counted along it
From the text: as §1, §2, §9, §3, §4, §10

[10] = biological target: T10, E. coli sulfate binding protein variant W290C, fluorophore conjugate (Escherichia coli, UniProt P0AG78, W309C); experiment: Fluorimetric titration of fluorophore conjugates; conditions: JPW4042 conjugate, ligand sulfate
T10 construct: Gly-Ser-Gly-(His)n or Gly-Ser-(His)n, n=5, 6 or 10 (C); initiator methionine (N); made in house; host or cells: E. coli strain BL21-DE3
T10 sequence (P0AG78 20-329 W309C): as the sequence (P0AG78 20-329, change not shown) above, with W290C counted along it
From the text: as §1, §2, §9, §3, §4, §10

T1 sequence (P02925 26-296 A259C): as the sequence (P02925 26-296 L290C) above, with A234C, C265L counted along it

`OC1OC[C@@H](O)[C@@H](O)[C@H]1O` (some centres unmarked) [ribose] was tested, and the Kd ([1]; JPW4039 conjugate) was 1840 nM, the Kd ([1]; JPW4045 conjugate) was 3760 nM and the Kd ([1]; NBD conjugate) was 735 nM. It also gave a Kd [2] of 260 nM, a Kd ([3]; JPW4042 conjugate) of 620 nM and a Kd ([3]; JPW4045 conjugate) of 1530 nM. It also gave a Kd ([3]; NBD conjugate) of 100 nM, a Kd ([4]; Kd, Fluorescein conjugate, E192C, ligand ribose) of 11400 nM and a Kd ([4]; Kd, JPW4039 conjugate, E192C, ligand ribose) of 2570 nM. For the same compound, the Kd ([4]; Kd, JPW4042 conjugate, E192C, ligand ribose) was 5030 nM, the Kd ([4]; Kd, JPW4045 conjugate, E192C, ligand ribose) was 15000 nM and the Kd ([4]; Kd, NBD conjugate, E192C, ligand ribose) was 2600 nM. It also gave a Kd ([4]; affinity for ribose (Kd), E192C-JPW4039 conjugate) of 2600 nM, a Kd ([4]; affinity for ribose (Kd), E192C-JPW4045 conjugate) of 15000 nM and a Kd ([4]; affinity for ribose (Kd), E192C-NBD conjugate) of 2600 nM. The “range of Kd” value [5] was 100 to 2.09e+06 nM.

With `O=S(=O)(O)O` [sulfate] the Kd [6] was 320 to 29000 nM, the Kd [7] was 830 nM and the Kd [8] was 1090 nM. For the same compound, the Kd ([9]; Acrylodan conjugate, R134C, ligand sulfate) was 4170 nM, the Kd ([9]; Fluorescein conjugate, R134C, ligand sulfate) was 323 nM and the Kd ([9]; JPW4039 conjugate, R134C, ligand sulfate) was 7500 nM. It also gave a Kd ([9]; JPW4042 conjugate, R134C, ligand sulfate) of 29100 nM, a Kd ([9]; NBD conjugate, R134C, ligand sulfate) of 22400 nM and a Kd ([9]; R134C-acrylodan) of ~4000 nM. The Kd [10] was 336 nM.
